{"source": "patent US8546575B2", "about": "“NIP thiazole derivatives as inhibitors of 11-beta-hydroxysteroid dehydroge-nase-1” (Merck Patent GmbH, priority 2008, dated 2013)", "key": {"mouse 11-β-HSD-1": {"target": "T1, mouse 11-β-HSD-1 (Mus musculus, UniProt P50172)", "T1 construct": "either as microsome fractions from rat and mice liver (2.5 μg); tissue TEBU; host or cells: mouse liver microsome fractions", "T1 sequence (P50172 whole entry)": "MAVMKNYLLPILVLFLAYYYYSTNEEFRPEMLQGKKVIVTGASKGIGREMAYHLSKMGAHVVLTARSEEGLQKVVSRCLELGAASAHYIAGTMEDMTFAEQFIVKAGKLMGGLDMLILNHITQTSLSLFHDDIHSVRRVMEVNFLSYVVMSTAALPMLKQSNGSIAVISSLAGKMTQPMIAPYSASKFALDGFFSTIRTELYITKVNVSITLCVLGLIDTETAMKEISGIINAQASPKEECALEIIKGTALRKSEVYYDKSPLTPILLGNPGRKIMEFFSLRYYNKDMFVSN", "test": "Inhibition of 11-β-HSD-1 enzyme assay (HTRF Cortisol), mice liver microsome fractions", "type": "biochemical", "settings": "for remaining activity at 1 µM: read-out: Inhibition of mouse 11-β-HSD-1 % of control at 1 μM", "procedure": "(§1) Human recombinant 11-beta-hydroxysteroid dehydrogenase type 1 (11-β-HSD-1) enzyme was expressed in E. coli. Rat and mice liver microsome fractions were purchased from TEBU.\n(§2) The 11-β-HSD-1 enzyme assay was carried out in 96 well microtiter plates in a total volume of 100 μl containing 30 mM Hepes buffer, pH 7.4 with 1 mM EDTA, substrate mixture cortisone/NADPH (200 nM/200 μM), G-6-P (1 mM) and inhibitors in serial dilutions. Reactions were initiated by addition of 10 μl 11-β-HSD-1 (3 μg) from E. coli, either as microsome fractions from rat and mice liver (2.5 μg). Following mixing, the plates were shaken for 150 minutes at 37° C. The reactions were terminated with 10 μl Acid-18beta Glycyrrhetinic stop solution. Determinations of Cortisol levels in 11-β-HSD-1 preparations were monitored by HTRF (HTRF Cortisol assay from Cis bio international).\n(§3) Activity is expressed in % of control or concentration to inhibit 50% of the enzyme activity (IC50) (table 6)."}, "human 11-β-HSD-1": {"target": "T2, human 11-β-HSD-1 (Homo sapiens, UniProt P28845)", "T2 construct": "made in house; host or cells: E. coli", "T2 sequence (P28845 whole entry)": "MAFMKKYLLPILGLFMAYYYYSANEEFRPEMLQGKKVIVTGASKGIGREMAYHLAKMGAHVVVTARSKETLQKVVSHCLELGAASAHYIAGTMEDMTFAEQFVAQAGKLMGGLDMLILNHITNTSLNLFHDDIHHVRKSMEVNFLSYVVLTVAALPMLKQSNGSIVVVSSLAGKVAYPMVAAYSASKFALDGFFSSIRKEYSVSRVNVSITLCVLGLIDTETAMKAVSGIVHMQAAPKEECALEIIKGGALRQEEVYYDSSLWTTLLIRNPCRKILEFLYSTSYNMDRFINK", "test": "Inhibition of 11-β-HSD-1 enzyme assay (HTRF Cortisol), human recombinant enzyme", "type": "biochemical", "settings": "for IC50: human recombinant enzyme from E. coli, cortisone/NADPH 200 nM/200 μM", "procedure": "as §1, §2, §3"}, "humans": {"system": "humans", "settings": "cited from earlier work"}, "normal patients": {"system": "normal patients", "settings": "cited from earlier work"}}}
{"smiles": "O=C(CCC1CCCC1)N1CCC(c2nc(C(=O)N(C3CCCCC3)C3CC3)cs2)CC1", "note": "[Compound 2.7, 2-[1-(3-Cyclopentyl-propionyl)-piperidin-4-yl]-thiazole-4-carboxylic acid cyclohexyl-cyclopropyl-amide]", "values": [{"measurement": "IC50", "setting": "mouse 11-β-HSD-1", "value": 630, "unit": "nM"}, {"measurement": "IC50", "setting": "human 11-β-HSD-1", "value": 420, "unit": "nM"}]}
{"smiles": "CCCCS(=O)(=O)N1CCC(c2nc(C(=O)N3CCCC4CCCCC43)cs2)CC1", "note": "(stereo not shown) [Compound 4.2, {2-[1-(Butane-1-sulfonyl)-piperidin-4-yl]-thiazol-4-yl}-(octahydro-quinolin-1-yl)-methanone]", "values": [{"measurement": "IC50", "setting": "mouse 11-β-HSD-1", "value": 210, "unit": "nM"}, {"measurement": "IC50", "setting": "human 11-β-HSD-1", "value": 93, "unit": "nM"}]}
{"smiles": "CC1(C)[C@@H](OC(=O)CCC(=O)O)CC[C@]2(C)[C@H]3C(=O)C=C4[C@@H]5C[C@@](C)(C(=O)O)CC[C@]5(C)CC[C@@]4(C)[C@]3(C)CC[C@@H]12", "note": "[carbenoxolone]", "values": [{"measurement": "hepatic insulin sensitivity", "setting": "humans", "value": "improved hepatic insulin sensitivity"}, {"measurement": "reduction of the intraocular pressure", "setting": "normal patients", "value": 20, "unit": "%"}]}
{"smiles": "COc1ccc(CNC(=O)N2CCC(c3nc(C(=O)N4CCCC5CCCCC54)cs3)CC2)cc1", "note": "(stereo not shown) [Compound 3.22, 4-[4-(Octahydro-quinoline-1-carbonyl)-thiazol-2-yl]-piperidine-1-carboxylic acid 4-methoxy-benzylamide]", "values": [{"measurement": "IC50", "setting": "mouse 11-β-HSD-1", "value": 500, "unit": "nM"}, {"measurement": "IC50", "setting": "human 11-β-HSD-1", "value": 53, "unit": "nM"}]}
{"smiles": "O=C(c1csc(C2CCN(S(=O)(=O)c3cccs3)CC2)n1)N(C1CCCCC1)C1CC1", "note": "[Compound 4.11, 2-[1-(Thiophene-2-sulfonyl)-piperidin-4-yl]-thiazole-4-carboxylic acid cyclohexyl-cyclopropyl-amide]", "values": [{"measurement": "IC50", "setting": "human 11-β-HSD-1", "value": 720, "unit": "nM"}]}
{"smiles": "O=C(c1csc(C2CCNCC2)n1)N(C1CCCCC1)C1CC1", "note": "[Compound 1.1, 2-Piperidin-4-yl-thiazole-4-carboxylic acid cyclohexyl-cyclopropyl-amide]", "values": [{"measurement": "IC50", "setting": "mouse 11-β-HSD-1", "value": 290, "unit": "nM"}, {"measurement": "IC50", "setting": "human 11-β-HSD-1", "value": 1200, "unit": "nM"}]}
{"smiles": "O=C(C1CCCC1)N1CCC(c2nc(C(=O)N3CCCC4CCCCC43)cs2)CC1", "note": "(stereo not shown) [Compound 2.18, [2-(1-Cyclopentanecarbonyl-piperidin-4-yl)-thiazol-4-yl]-(octahydro-quinolin-1-yl)-methanone]", "values": [{"measurement": "IC50", "setting": "mouse 11-β-HSD-1", "value": 490, "unit": "nM"}, {"measurement": "IC50", "setting": "human 11-β-HSD-1", "value": 130, "unit": "nM"}]}
{"smiles": "CC(C)(C)CC(=O)N1CCC(c2nc(C(=O)N3CCCC4CCCCC43)cs2)CC1", "note": "(stereo not shown) [Compound 2.1, 3,3-Dimethyl-1-{4-[4-(octahydro-quinoline-1-carbonyl)-thiazol-2-yl]-piperidin-1-yl}-butan-1-one]", "values": [{"measurement": "remaining activity at 1 µM", "setting": "mouse 11-β-HSD-1", "value": 51, "unit": "%"}, {"measurement": "IC50", "setting": "human 11-β-HSD-1", "value": 92, "unit": "nM"}]}
{"smiles": "O=C(c1csc(C2CCN(S(=O)(=O)C(F)(F)F)CC2)n1)N1CCCC2CCCCC21", "note": "(stereo not shown) [Compound 4.1, (Octahydro-quinolin-1-yl)-[2-(1-trifluoromethanesulfonyl-piperidin-4-yl)-thiazol-4-yl]-methanone]", "values": [{"measurement": "IC50", "setting": "mouse 11-β-HSD-1", "value": 330, "unit": "nM"}, {"measurement": "IC50", "setting": "human 11-β-HSD-1", "value": 32, "unit": "nM"}]}
{"smiles": "O=C(c1csc(C2CCN(S(=O)(=O)CCc3ccncc3)CC2)n1)N(C1CCCCC1)C1CC1", "note": "[Compound 4.18, 2-[1-(2-Pyridin-4-yl-ethanesulfonyl)-piperidin-4-yl]-thiazole-4-carboxylic acid cyclohexyl-cyclopropyl-amide]", "values": [{"measurement": "remaining activity at 1 µM", "setting": "mouse 11-β-HSD-1", "value": 49, "unit": "%"}, {"measurement": "IC50", "setting": "human 11-β-HSD-1", "value": 1000, "unit": "nM"}]}
{"smiles": "CCCCCNC(=O)N1CCC(c2nc(C(=O)N3CCCC4CCCCC43)cs2)CC1", "note": "(stereo not shown) [Compound 3.7, 4-[4-(Octahydro-quinoline-1-carbonyl)-thiazol-2-yl]-piperidine-1-carboxylic acid pentylamide]", "values": [{"measurement": "IC50", "setting": "mouse 11-β-HSD-1", "value": 59, "unit": "nM"}, {"measurement": "IC50", "setting": "human 11-β-HSD-1", "value": 340, "unit": "nM"}]}
{"smiles": "COc1ccc(S(=O)(=O)N2CCC(c3nc(C(=O)N(C4CCCCC4)C4CC4)cs3)CC2)cc1", "note": "[Compound 4.20, 2-[1-(4-Methoxy-benzenesulfonyl)-piperidin-4-yl]-thiazole-4-carboxylic acid cyclohexyl-cyclopropyl-amide]", "values": [{"measurement": "IC50", "setting": "mouse 11-β-HSD-1", "value": 1000, "unit": "nM"}, {"measurement": "IC50", "setting": "human 11-β-HSD-1", "value": 280, "unit": "nM"}]}
{"smiles": "O=C(C1CCCCC1)N1CCC(c2nc(C(=O)N3CCCC4CCCCC43)cs2)CC1", "note": "(stereo not shown) [Compound 2.17, [2-(1-Cyclohexanecarbonyl-piperidin-4-yl)-thiazol-4-yl]-(octahydro-quinolin-1-yl)-methanone]", "values": [{"measurement": "IC50", "setting": "mouse 11-β-HSD-1", "value": 340, "unit": "nM"}, {"measurement": "IC50", "setting": "human 11-β-HSD-1", "value": 200, "unit": "nM"}]}
{"smiles": "CCC(C)NC(=O)N1CCC(c2nc(C(=O)N3CCCC4CCCCC43)cs2)CC1", "note": "(stereo not shown) [Compound 3.1, 4-[4-(Octahydro-quinoline-1-carbonyl)-thiazol-2-yl]-piperidine-1-carboxylic acid sec-butylamide]", "values": [{"measurement": "IC50", "setting": "mouse 11-β-HSD-1", "value": 470, "unit": "nM"}, {"measurement": "IC50", "setting": "human 11-β-HSD-1", "value": 270, "unit": "nM"}]}
{"smiles": "O=C(c1csc(C2CCNCC2)n1)N1CCCC2CCCCC21", "note": "(stereo not shown) [Compound 1.2, (Octahydro-quinolin-1-yl)-(2-piperidin-4-yl-thiazol-4-yl)-methanone]", "values": [{"measurement": "remaining activity at 1 µM", "setting": "human 11-β-HSD-1; at 1 μM, human recombinant enzyme, read-out: Inhibition of human 11-β-HSD-1 % of control at 1 μM", "value": 27, "unit": "%"}]}
